How the values were obtained:
Assay type in all cases: in vitro ADME
CYP2C19 = molecular target: T1, CYP2C19 (Homo sapiens, UniProt P33261); test: CYP2C19 activity (S-mephenytoin 4-hydroxylation) in human liver microsomes; settings: 0-100 μM plantainoside D
T1 construct: Pooled human liver microsomes were obtained from BD Biosciences Discovery Labware; tissue BD Biosciences Discovery Labware; host or cells: pooled human liver microsomes
Protocol: (§1) The activity of P450s was evaluated by corresponding metabolites using HPLC with Agilent 1260 Series Rapid Resolution HPLC. The reaction system was prepared with the following compositions: HLMs with certain protein concentrations, specific substrates of different isoenzymes, PBS buffer solution, plantainoside D or specific inhibitors, and an NADPH generating system as previously reported. Besides dextromethorphan and quinidine were dissolved in water, other substrated, inhibitors, and plantainoside D were dissolved in methanol with a final concentration of 1% (v/v). Before initiating the reaction, there was a preincubation of 3 min followed by the addition of the NADPH-generating system. [table] [table] […] Furthermore, the inhibition model of P450 isoenzymes was estimated in the presence of various concentrations of corresponding substrates and fitting with Lineweaver–Burk and Dixon plots, and the inhibition constant was calculated by the following equations: […]

CYP2E1 = molecular target: T2, CYP2E1 (Homo sapiens, UniProt P05181); test: CYP2E1 activity (chlorzoxazone 6-hydroxylation) in human liver microsomes; settings: 0-100 μM plantainoside D
T2 construct: Pooled human liver microsomes were obtained from BD Biosciences Discovery Labware; tissue BD Biosciences Discovery Labware; host or cells: pooled human liver microsomes
T2 sequence (P05181 whole entry): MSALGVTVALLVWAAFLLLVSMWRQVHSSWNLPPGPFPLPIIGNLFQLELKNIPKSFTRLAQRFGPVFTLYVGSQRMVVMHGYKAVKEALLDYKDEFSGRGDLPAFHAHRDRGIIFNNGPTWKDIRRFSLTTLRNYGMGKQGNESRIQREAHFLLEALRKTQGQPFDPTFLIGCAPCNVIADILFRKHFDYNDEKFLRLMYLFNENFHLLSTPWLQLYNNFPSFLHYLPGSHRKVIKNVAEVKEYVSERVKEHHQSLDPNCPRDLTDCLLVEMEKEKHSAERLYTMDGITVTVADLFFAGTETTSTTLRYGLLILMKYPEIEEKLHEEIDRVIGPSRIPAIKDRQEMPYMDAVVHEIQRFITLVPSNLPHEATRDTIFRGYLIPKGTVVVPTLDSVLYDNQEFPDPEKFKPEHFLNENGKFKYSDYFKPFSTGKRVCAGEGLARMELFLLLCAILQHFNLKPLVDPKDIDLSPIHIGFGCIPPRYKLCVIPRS
Protocol: as §1

CYP1A2 [1] = molecular target: T3, CYP1A2 (Homo sapiens, UniProt P05177); test: Time-dependent inhibition of CYP1A2 in human liver microsomes; settings: 20 μM plantainoside D; incubation 0-30 min; 1 mg/mL HLMs
T3 construct: Pooled human liver microsomes were obtained from BD Biosciences Discovery Labware; tissue BD Biosciences Discovery Labware; host or cells: pooled human liver microsomes
T3 sequence (P05177 1-516): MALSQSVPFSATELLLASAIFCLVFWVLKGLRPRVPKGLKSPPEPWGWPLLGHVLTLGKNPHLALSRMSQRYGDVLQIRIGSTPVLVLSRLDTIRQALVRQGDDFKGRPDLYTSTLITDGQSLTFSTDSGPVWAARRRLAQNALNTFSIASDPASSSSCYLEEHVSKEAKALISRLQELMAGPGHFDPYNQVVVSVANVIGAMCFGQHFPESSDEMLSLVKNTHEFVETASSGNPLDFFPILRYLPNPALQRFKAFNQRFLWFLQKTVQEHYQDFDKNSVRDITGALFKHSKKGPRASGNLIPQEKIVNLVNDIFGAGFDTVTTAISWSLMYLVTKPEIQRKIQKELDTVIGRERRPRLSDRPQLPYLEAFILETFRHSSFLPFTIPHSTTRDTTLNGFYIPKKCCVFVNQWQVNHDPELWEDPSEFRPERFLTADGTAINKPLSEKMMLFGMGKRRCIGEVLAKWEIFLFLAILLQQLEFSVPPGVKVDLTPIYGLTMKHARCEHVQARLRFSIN
Protocol: (§2) A total of 1 mg/mL HLMs were firstly incubated with 20 μM plantainoside D and the NADPH-generating system for 30 min. Then, incubation with 20 μL aliquot was carried out for 0, 5, 10, 15, and 30 min in the presence of substrates concentration close to Km.

CYP3A [2] = molecular target: T4, CYP3A (Homo sapiens, UniProt P08684); test: Concentration-dependent inhibition of CYP3A (testosterone 6β-hydroxylation) in human liver microsomes
T4 sequence (P08684 2-503): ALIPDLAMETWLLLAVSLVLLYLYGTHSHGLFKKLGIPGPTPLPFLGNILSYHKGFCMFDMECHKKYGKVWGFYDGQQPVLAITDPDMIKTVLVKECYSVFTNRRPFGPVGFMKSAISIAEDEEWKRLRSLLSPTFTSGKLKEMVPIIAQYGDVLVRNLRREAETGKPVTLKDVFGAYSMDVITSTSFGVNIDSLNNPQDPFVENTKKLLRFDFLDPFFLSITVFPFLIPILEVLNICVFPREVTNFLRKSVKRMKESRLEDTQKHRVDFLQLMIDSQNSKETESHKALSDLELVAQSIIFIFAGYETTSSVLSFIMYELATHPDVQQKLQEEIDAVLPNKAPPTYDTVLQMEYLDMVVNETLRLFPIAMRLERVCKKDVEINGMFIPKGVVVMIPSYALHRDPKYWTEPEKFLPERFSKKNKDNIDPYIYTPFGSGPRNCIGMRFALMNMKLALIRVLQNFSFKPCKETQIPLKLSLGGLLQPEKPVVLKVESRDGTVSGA
Protocol: (§3) The activity of P450s was evaluated by corresponding metabolites using HPLC with Agilent 1260 Series Rapid Resolution HPLC. The reaction system was prepared with the following compositions: HLMs with certain protein concentrations, specific substrates of different isoenzymes, PBS buffer solution, plantainoside D or specific inhibitors, and an NADPH generating system as previously reported. Besides dextromethorphan and quinidine were dissolved in water, other substrated, inhibitors, and plantainoside D were dissolved in methanol with a final concentration of 1% (v/v). Before initiating the reaction, there was a preincubation of 3 min followed by the addition of the NADPH-generating system.
(§4) The effect of plantainoside D was primarily evaluated with the concentration of 0, 2.5, 5, 10, 25, 50, and 100 μM and the values of IC50 was evaluated. Furthermore, the inhibition model of P450 isoenzymes was estimated in the presence of various concentrations of corresponding substrates and fitting with Lineweaver–Burk and Dixon plots, and the inhibition constant was calculated by the following equations:
(§5) v=VmaxS/Km1+I/Ki+S for competitive inhibition;
(§6) v=(VmaxS)/[Km+S(1+I/KiKI)] for non-competitive inhibition.
(§7) where I is the concentration of plantainoside D, Ki is the inhibition constant, S is the concentration of the substrate, and Km is the substrate concentration at half the maximum velocity (Vmax) of the reaction.

CYP2D6 [3] = molecular target: T5, CYP2D6 (Homo sapiens, UniProt P10635); test: Time-dependent inhibition of CYP2D6 in human liver microsomes; settings: 20 μM plantainoside D; incubation 0-30 min; 1 mg/mL HLMs
T5 construct: Pooled human liver microsomes were obtained from BD Biosciences Discovery Labware; tissue BD Biosciences Discovery Labware; host or cells: pooled human liver microsomes
T5 sequence (P10635 whole entry): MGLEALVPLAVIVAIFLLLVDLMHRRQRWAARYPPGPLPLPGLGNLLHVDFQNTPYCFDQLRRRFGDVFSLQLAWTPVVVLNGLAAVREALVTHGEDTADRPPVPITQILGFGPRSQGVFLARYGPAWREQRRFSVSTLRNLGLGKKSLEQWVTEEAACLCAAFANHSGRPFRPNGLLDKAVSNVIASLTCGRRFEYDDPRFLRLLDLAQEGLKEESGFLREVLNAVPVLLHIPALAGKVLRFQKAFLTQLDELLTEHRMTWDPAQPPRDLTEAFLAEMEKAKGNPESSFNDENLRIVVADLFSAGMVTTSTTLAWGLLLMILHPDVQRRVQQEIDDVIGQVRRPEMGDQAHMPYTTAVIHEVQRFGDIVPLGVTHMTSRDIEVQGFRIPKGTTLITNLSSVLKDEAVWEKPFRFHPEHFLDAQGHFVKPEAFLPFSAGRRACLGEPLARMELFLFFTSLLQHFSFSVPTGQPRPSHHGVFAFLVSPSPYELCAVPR
Protocol: as §2

CYP2C8 = molecular target: T6, CYP2C8 (Homo sapiens, UniProt P10632); test: CYP2C8 activity (paclitaxel 6α-hydroxylation) in human liver microsomes; settings: 0-100 μM plantainoside D
T6 construct: Pooled human liver microsomes were obtained from BD Biosciences Discovery Labware; tissue BD Biosciences Discovery Labware; host or cells: pooled human liver microsomes
T6 sequence (P10632 1-490): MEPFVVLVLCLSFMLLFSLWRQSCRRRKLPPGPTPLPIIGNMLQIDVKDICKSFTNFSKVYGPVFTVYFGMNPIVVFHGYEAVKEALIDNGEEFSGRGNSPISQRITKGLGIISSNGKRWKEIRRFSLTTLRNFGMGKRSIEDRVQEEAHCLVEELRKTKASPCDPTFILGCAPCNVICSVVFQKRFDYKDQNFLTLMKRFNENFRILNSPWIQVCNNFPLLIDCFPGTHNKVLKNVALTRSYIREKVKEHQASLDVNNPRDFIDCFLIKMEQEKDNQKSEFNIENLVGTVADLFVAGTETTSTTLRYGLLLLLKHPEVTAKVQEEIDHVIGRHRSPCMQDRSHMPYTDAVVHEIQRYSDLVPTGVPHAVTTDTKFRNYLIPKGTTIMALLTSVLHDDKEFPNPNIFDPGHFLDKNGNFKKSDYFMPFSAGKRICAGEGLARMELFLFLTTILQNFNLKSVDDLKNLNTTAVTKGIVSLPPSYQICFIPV
Protocol: as §1

CYP2B6 = molecular target: T7, CYP2B6 (Homo sapiens, UniProt P20813); test: CYP2B6 activity (bupropion hydroxylation) in human liver microsomes; settings: 0-100 μM plantainoside D
T7 construct: Pooled human liver microsomes were obtained from BD Biosciences Discovery Labware; tissue BD Biosciences Discovery Labware; host or cells: pooled human liver microsomes
T7 sequence (P20813 1-491): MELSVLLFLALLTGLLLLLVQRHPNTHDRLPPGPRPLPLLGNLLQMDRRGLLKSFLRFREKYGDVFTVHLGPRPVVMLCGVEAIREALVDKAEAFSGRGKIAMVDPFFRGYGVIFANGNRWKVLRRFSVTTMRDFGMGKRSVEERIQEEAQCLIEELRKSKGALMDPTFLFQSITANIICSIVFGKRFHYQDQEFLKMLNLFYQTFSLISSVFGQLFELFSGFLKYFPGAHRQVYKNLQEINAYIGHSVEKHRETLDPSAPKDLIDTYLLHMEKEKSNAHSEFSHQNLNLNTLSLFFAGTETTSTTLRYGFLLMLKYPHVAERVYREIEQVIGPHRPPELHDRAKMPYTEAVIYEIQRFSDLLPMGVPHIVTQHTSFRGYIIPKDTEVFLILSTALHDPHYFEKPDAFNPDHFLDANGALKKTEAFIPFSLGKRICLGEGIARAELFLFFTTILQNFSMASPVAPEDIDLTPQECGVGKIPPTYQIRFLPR
Protocol: as §1

CYP2C9 = molecular target: T8, CYP2C9 (Homo sapiens, UniProt P11712); test: CYP2C9 activity (diclofenac 4'-hydroxylation) in human liver microsomes; settings: 0-100 μM plantainoside D
T8 construct: Pooled human liver microsomes were obtained from BD Biosciences Discovery Labware; tissue BD Biosciences Discovery Labware; host or cells: pooled human liver microsomes
T8 sequence (P11712 whole entry): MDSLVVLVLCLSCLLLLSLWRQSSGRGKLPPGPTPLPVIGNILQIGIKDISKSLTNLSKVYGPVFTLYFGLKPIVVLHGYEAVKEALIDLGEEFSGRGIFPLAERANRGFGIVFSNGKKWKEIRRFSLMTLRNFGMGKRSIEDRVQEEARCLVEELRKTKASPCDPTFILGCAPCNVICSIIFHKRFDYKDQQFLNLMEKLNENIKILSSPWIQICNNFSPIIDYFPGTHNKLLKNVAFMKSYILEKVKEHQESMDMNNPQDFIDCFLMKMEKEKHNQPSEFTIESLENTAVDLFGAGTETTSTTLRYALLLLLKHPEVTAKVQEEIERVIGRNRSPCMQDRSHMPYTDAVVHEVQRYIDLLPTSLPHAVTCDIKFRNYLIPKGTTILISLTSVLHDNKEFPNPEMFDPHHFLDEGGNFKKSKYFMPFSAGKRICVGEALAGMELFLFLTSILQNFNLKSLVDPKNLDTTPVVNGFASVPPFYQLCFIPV
Protocol: as §1

CYP2A6 = molecular target: T9, CYP2A6 (Homo sapiens, UniProt P11509); test: CYP2A6 activity (coumarin 7-hydroxylation) in human liver microsomes; settings: 0-100 μM plantainoside D
T9 construct: Pooled human liver microsomes were obtained from BD Biosciences Discovery Labware; tissue BD Biosciences Discovery Labware; host or cells: pooled human liver microsomes
T9 sequence (P11509 1-494): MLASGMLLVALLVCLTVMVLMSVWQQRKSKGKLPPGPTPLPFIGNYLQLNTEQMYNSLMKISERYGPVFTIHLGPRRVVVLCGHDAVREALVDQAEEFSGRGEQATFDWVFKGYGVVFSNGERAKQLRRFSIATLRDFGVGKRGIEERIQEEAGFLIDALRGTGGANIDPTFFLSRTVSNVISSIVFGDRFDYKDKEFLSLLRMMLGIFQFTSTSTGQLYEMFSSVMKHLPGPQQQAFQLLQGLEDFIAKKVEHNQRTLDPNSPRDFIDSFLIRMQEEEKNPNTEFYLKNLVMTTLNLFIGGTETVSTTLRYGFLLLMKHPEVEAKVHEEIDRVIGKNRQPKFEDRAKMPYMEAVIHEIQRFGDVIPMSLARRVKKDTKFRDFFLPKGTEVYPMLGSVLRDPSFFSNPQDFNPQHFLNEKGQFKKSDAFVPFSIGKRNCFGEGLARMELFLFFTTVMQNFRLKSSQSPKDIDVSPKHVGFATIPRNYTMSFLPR
Protocol: as §1

CYP3A [4] = molecular target: T4, CYP3A; test: Time-dependent inhibition of CYP3A in human liver microsomes
Protocol: A total of 1 mg/mL HLMs were firstly incubated with 20 μM plantainoside D and the NADPH-generating system for 30 min. Then, incubation with 20 μL aliquot was carried out for 0, 5, 10, 15, and 30 min in the presence of substrates concentration close to Km. Additionally, the values of KI and Kinact were evaluated in the presence of substrates approximate to fourfold Km according to the equation: 1/Kobs=KI/Kinact×1/[I]+1/Kinact .

CYP1A2 [5] = molecular target: T3, CYP1A2; test: Concentration-dependent inhibition of CYP1A2 (phenacetin O-deethylation) in human liver microsomes
Protocol: as §3, §4, §5, §6, §7

CYP2D6 [6] = molecular target: T5, CYP2D6; test: Concentration-dependent inhibition of CYP2D6 (dextromethorphan O-demethylation) in human liver microsomes
Protocol: as §3, §4, §5, §6, §7

[7] = human, human liver microsomes, probe testosterone (6β-hydroxylation)
[8] = Lineweaver-Burk plot, constant Vmax
[9] = competitive model, Dixon plot, human liver microsomes

T1 sequence (P33261 whole entry): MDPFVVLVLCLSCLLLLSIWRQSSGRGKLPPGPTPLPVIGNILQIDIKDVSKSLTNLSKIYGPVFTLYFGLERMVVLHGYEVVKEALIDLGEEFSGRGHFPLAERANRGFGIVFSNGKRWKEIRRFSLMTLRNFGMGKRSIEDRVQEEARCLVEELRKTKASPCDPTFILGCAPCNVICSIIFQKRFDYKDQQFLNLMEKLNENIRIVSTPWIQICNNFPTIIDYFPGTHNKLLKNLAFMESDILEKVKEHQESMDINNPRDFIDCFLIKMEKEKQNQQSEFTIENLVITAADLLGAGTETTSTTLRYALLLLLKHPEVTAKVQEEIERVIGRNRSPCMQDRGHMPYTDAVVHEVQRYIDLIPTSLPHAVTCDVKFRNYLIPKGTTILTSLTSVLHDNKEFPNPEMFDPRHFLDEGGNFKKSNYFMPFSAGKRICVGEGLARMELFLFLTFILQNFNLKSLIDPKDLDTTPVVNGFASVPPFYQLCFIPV

SMILES: O=C(/C=C/c1ccc(O)c(O)c1)OC[C@H]1O[C@@H](OCCc2ccc(O)c(O)c2)[C@H](O)[C@@H](O[C@@H]2O[C@H](CO)[C@@H](O)[C@H](O)[C@H]2O)[C@@H]1O [plantainoside D, Plantainoside D]
- Effect on CYP2C19 activity (CYP2C19): no changes
- Effect on CYP2E1 activity (CYP2E1): no changes
- Time dependence of CYP1A2 inhibition (CYP1A2 [1]): no significant changes with time
- Inhibition model of CYP3A (CYP3A [2]; Lineweaver-Burk plot, constant Km): non-competitive
- IC50 (CYP3A [2]; [7]): 14.7 µM
- Ki (CYP3A [2]; [7]): 7.16 µM
- Time dependence of CYP2D6 inhibition (CYP2D6 [3]): no significant changes with time
- Effect on CYP2C8 activity (CYP2C8): no changes
- Effect on CYP2B6 activity (CYP2B6): no changes
- Effect on CYP2C9 activity (CYP2C9): no changes
- Effect on CYP2A6 activity (CYP2A6): no changes
- Time dependence of CYP3A inhibition (CYP3A [4]; 20 μM plantainoside D, incubation 0-30 min, 1 mg/mL HLMs): enhanced with the increasing incubation time
- kinact (CYP3A [4]; human liver microsomes, 0, 2, 5, 10, 20, 50 μM plantainoside D, substrate about fourfold Km): 0.00065 s⁻¹
- Inhibition model of CYP1A2 (CYP1A2 [5]; [8]): competitive
- Ki (CYP1A2 [5]; [9]): 6.26 µM
- IC50 (CYP1A2 [5]; human liver microsomes, 0-100 μM plantainoside D, phenacetin substrate): 12.8 µM
- Inhibition model of CYP2D6 (CYP2D6 [6]; [8]): competitive
- Ki (CYP2D6 [6]; [9]): 4.54 µM
- IC50 (CYP2D6 [6]; human liver microsomes, 0-100 μM plantainoside D, dextromethorphan substrate): 8.39 µM
